From article PMC11719397, “Monophthalates of betulinic acid and related pentacyclic triterpenes inhibit efficiently the SOS-mediated nucleotide exchange and impact PI3K/AKT signaling in oncogenic K-RAS4B proteins” (RSC Advances, 2025)
In brackets after ≈: the same amount, converted by molar mass.

How the values were obtained:
K-RAS4B wild-type [1] = target: K-RAS4B wild-type (Homo sapiens, UniProt P01116); assay: Nucleotide exchange assay (SOS1-mediated GDP/GTP exchange, GDP-Glo), K-RAS4B wild-type; format: biochemical; conditions: K-RAS4B GDP/GTP exchange; eight data points, at least three determinations; (*) single determination
Sequence of K-RAS4B wild-type (Homo sapiens, UniProt P01116) (P01116 1-188 isoform P01116-2): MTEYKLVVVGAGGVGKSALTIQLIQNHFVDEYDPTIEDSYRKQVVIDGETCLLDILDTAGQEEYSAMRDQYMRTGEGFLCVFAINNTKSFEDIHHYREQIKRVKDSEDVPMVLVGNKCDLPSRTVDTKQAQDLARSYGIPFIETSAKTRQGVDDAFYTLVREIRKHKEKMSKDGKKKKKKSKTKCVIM

K-RAS4B^G12D [2] = target: T1, K-RAS4B^G12D (Homo sapiens, UniProt P01116, G12D); assay: biochemical; conditions: for IC50: K-RAS4B GDP/GTP exchange, eight data points, at least three determinations
Target sequence in this assay (P01116 1-188 isoform P01116-2 G12D): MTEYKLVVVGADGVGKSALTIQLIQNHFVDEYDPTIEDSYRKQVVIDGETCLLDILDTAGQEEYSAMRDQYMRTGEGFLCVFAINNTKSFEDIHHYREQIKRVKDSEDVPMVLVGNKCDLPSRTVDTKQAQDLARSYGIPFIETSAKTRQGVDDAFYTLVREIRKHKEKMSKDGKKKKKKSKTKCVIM

K-RAS4B G12V = K-RAS4B G12V (Homo sapiens, UniProt P01116, G12V); assay: Nucleotide exchange assay (SOS1-mediated GDP/GTP exchange, GDP-Glo), K-RAS4B G12V; format: biochemical; conditions: eight data points, at least three determinations, (*) single determination
Sequence of K-RAS4B G12V (P01116 1-188 isoform P01116-2 G12V): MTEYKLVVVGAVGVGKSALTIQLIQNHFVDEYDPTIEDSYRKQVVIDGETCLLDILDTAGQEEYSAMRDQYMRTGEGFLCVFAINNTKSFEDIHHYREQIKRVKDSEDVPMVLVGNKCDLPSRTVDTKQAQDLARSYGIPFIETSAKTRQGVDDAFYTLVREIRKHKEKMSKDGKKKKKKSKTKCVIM

[3] = target: (GTP)K-RAS4B^wt:SOS1 complex (Homo sapiens, UniProt P01116+Q07889); assay: HTRF K-RAS^wt:SOS protein-protein interaction assay
Sequence of (GTP)K-RAS4B^wt:SOS1 complex (P01116 1-188 isoform P01116-2): as the sequence (P01116 1-188 isoform P01116-2) above
Sequence of (GTP)K-RAS4B^wt:SOS1 complex (Q07889 564-1049 limits assumed): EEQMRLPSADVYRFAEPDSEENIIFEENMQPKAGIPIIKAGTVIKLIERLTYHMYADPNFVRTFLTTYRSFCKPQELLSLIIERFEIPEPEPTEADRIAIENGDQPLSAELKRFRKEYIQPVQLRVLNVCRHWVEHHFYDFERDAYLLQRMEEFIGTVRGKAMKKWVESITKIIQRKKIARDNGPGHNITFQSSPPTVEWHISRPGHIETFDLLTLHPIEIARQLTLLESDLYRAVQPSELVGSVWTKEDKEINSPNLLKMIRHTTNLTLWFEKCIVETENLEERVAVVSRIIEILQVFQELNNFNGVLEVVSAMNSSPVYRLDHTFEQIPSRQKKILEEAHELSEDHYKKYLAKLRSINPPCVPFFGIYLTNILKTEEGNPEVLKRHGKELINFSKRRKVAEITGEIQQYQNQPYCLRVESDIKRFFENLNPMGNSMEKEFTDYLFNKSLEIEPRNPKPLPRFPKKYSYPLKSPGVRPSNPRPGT
Description: The interaction of (GTP)K-RAS4B^wt and SOS was measured with a HTRF assay using an SOS-specific antibody labeled with terbium cryptate as HTRF (homogeneous time-resolved fluorescence) donor and a K-RAS4B^wt specific antibody labeled with an HTRF acceptor (XL665).[52]
To test the compounds effect on the interaction of K-RAS and SOS1 proteins a commercial assay from Revvity (product code 64[sequence]) was used. The K-RAS WT/SOS1 PPI assay includes tagged human recombinant partners (K-RAS WT and SOS1) and labelled anti-tag reagents for HTRF detection. Without an inhibitor, K-RAS WT loaded with GTP binds to SOS1, and the binding of each detection reagent to its tagged target generates an HTRF signal. In the presence of K-RAS WT/SOS1 inhibitors or GTP competitors, the HTRF signal decreases.
After an incubation step for 10 min at room temperature 3 μL Tag1-KRAS protein was added followed by 7.5 μL detection mix containing anti-Tag2 antibody labeled with Terbium cryptate and anti-Tag1 antibody labeled with XL665. […] IC50 values were determined from the sigmoidal dose response curves with the Scigilian Analyze software (Scigilian, Monteral, Canada).

K-RAS4B^G12D [4] = target: T1, K-RAS4B^G12D; assay: cell-based; parameters: a fusion protein of LgBiT and full-length RAS; a fusion protein of SmBiT(q) and full-length RAS in cells; expressed in transfected cells; host or cells: HEK239T (so in the source); conditions: live cells; displacement of BI2852 from the K-Ras4B SI/II binding-site; read-out: K-RAS4B^G12D NanoBRET TE KD
Source text: (§1) To obtain further information on the mode of action, selected GDP/GTP exchange inhibitors were studied in additional assays (Table 3). A target engagement assay, which is based on bioluminescence resonance energy transfer (BRET), was used to measure target engagement at protein complexes in live cells (Fig. 5a). The BRET effect results from an energy transfer between the target luciferase fusion protein and a cell-permeable fluorescent tracer in intact cells.
(§2) Fig. 5 Schematic illustrations of the RAS cellular target engagement and RAS:SOS protein–protein interaction assay. (a) NanoBRET target engagement (TE) assay: when the fusion proteins LgBiT-RAS and SmBiT(q)-RAS interact in live-cells, they form an active luciferase as a BRET donor. The BRET receptor is a fluorescent NanoBRET® tracer that binds specifically to K-RAS. K-RAS binders displace the tracer and reduce the BRET signal in a dose-dependent manner.
(§3) The NanoBRET® TE Intracellular RAS Assay uses NanoBiT® Technology, a structural complementation system comprised of a large luciferase subunit (LgBiT) and a small complementary peptide (SmBiT(q)). Specifically, a fusion protein of LgBiT and full-length RAS is co-expressed with a fusion protein of SmBiT(q) and full-length RAS in cells. When the RAS proteins interact and form multimers, the LgBiT and SmBiT(q) subunits come together to form an active luciferase enzyme that serves as the BRET donor. The energy acceptor is a cell-permeable fluorescent NanoBRET® tracer that binds specifically to RAS. […] After mixing the plate for 1 min and incubation at room temperature for 15 min 1 μL of NanoBRET TE RAS Tracer 01 (final concentration 1 μM) was added followed by another mixing step. After 2 h incubation (37 °C, 5% CO2) and 15 min at room temperature 5 μL of NanoBRET™ Nano-Glo® substrate was added followed by a mixing step.
Target sequence in this assay (P01116 1-188 isoform P01116-2 G12D): as the sequence (P01116 1-188 isoform P01116-2 G12D) above
Target sequence in this assay (P01116 1-188 isoform P01116-2 G12D): as above

[5] = test system: ERK phosphorylation in SNU-1 cells (K-RAS4B^G12D); assay: HTRF ERK phosphorylation assay in SNU-1 cells; format: cell-based; conditions: Homo sapiens, SNU1, read-out: SNU-1 pERK inhibition IC50
Description: (§4) For selected betulinic acid derivatives quantitative ERK and AKT phosphorylation was measured in SNU-1 (K-RAS4B^G12D) and A375 cells (K-RAS4B^wt) to determine whether pentacyclic triterpenes act via the RAS-RAF-MEK-ERK or the RAS-PI3K-PDK1-AKT downstream cascade (Table 2). The betulinic acid derivatives tested, had no activity on the ERK pathway, but inhibited AKT phosphorylation with micromolar IC50 values in agreement with literature reports.[50,51] […] No activity was detected in A375 cells carrying a BRAF but no K-RAS mutation.
(§5) SNU-1 cells harbouring the K-RASG12D mutation (primary carcinoma of the stomach), were grown in RPMI medium with 10% FBS (fetal bovine serum) and 1% L-Gln. Cells were plated in white small volume cell culture 384 well microplates (Greiner BioOne GmbH) at a density of 50.000 cells per well/6 μL in RPMI medium with 1% L-glut (serum-free medium). The plated cells were placed in a high humidity incubator (37 °C, 5% CO2 and 90% humidity) to avoid evaporation of the small amount of medium for 3 hours before the compounds were added. With the Echo520 liquid handler the cells were treated with a 3-fold 8-point serial dilution of the compounds, with a top final concentration of 330 μM and a final DMSO concentration of 1%. After compound transfer, cells were incubated for 1 hour in the high humidity incubator before the cells were treated with 3 μL of 9 nM EGF diluted in serum-free medium (final EGF concentration in the well 3 nM) for 15 minutes. The lysis buffer from the Phospho-ERK 1/2 (Thr202/Tyr204)- and the Total ERK1/2 LANCE Ultra TR-FRET Cellular Detection Kit (PerkinElmer Inc.) was prepared to a 4-fold concentration in water. Then 3 μL of the lysis buffer were added to each well and the plates were shaken at 300 rpm for 30 minutes at room temperature. During this incubation the antibody detection mix was prepared according to the manufacturer's protocol. In the final step 3 μL of antibody detection mix were added to each well. The plates were sealed with an aluminium sticky foil and incubated over night at room temperature for 20 hours. The detection was performed with the EnVision2104 Multilabel Reader.

[6] = test system: AKT phosphorylation in SNU-1 cells (K-RAS4B^G12D); assay: HTRF AKT phosphorylation assay in SNU-1 cells; format: cell-based; conditions: Homo sapiens, SNU1, read-out: SNU-1 pAKT inhibition IC50
Description: as §4, §5

[7] = test system: ERK phosphorylation in A375 cells (K-RAS4B^wt); assay: HTRF ERK phosphorylation assay in A375 cells; format: cell-based; conditions: Homo sapiens, A-375; A375 cells (K-RAS4B^wt, BRAF mutation); two determinations; read-out: A375 pERK inhibition IC50
Description: as §4, §5

[8] = test system: AKT phosphorylation in A375 cells (K-RAS4B^wt); assay: HTRF AKT phosphorylation assay in A375 cells; format: cell-based; conditions: Homo sapiens, A-375; A375 cells (K-RAS4B^wt, BRAF mutation); two determinations; read-out: A375 pAKT inhibition IC50
Description: as §4, §5

K-RAS4B wild-type [9] = assay: Nucleotide exchange assay (SOS1-mediated GDP/GTP exchange, GDP-Glo), K-RAS4B wild-type; format: biochemical; conditions: GDP/GTP exchange IC50 of wild-type versus G12D/G12V mutants
K-RAS4B^wt = target: T2, K-RAS4B^wt (Homo sapiens, UniProt P01116); assay: NanoBRET target engagement assay, K-RAS4B^wt (displacement of BI2852 tracer from SI/SII site); format: cell-based; conditions: live cells; displacement of BI2852 from the K-Ras4B SI/II binding-site; read-out: K-RAS4B^wt NanoBRET TE KD
T2 construct: a fusion protein of LgBiT and full-length RAS; a fusion protein of SmBiT(q) and full-length RAS in cells; expressed in transfected cells; host or cells: HEK239T (so in the source)
T2 sequence (P01116 1-188 isoform P01116-2): as the sequence (P01116 1-188 isoform P01116-2) above
T2 sequence (P01116 1-188 isoform P01116-2): as above
Source text: as §1, §2, §3

Row | Compound | IC50 (K-RAS4B wild-type [1]) | IC50 (K-RAS4B^G12D [2]) | IC50 (K-RAS4B G12V) | solubility (Solubility) | Kd [3] | Kd (K-RAS4B^G12D [4]) | inhibition of GDP/GTP exchange (in words) (K-RAS4B^G12D [2]; K-RAS4B form mostly not given, inactive = IC50 > 100 μM (Fig. 3 legend)) | IC50 [5] | IC50 [6] | IC50 [7] | IC50 [8] | selectivity factor, mutant versus K-RAS4B^wt (K-RAS4B wild-type [9]) | Kd (K-RAS4B^wt)
1 | C=C(C)[C@@H]1CC[C@]2(COC(=O)CCC(=O)O)CC[C@]3(C)[C@H](CC[C@@H]4[C@@]5(C)CC[C@H](OC(=O)c6cc(F)c(F)cc6C(=O)O)C(C)(C)[C@@H]5CC[C@]43C)[C@@H]12 [Compound 34] | 1.18 ± 0.02 µM | 0.66 ± 0.13 µM | 2.85 ± 0.14 µM | 410 µM (≈ 298 µg/mL) | > 100 µM | > 100 µM | – | – | – | – | – | – | –
2 | C[C@H]1[C@H](C)CC[C@]2(C(=O)O)CC[C@]3(C)C(=CC[C@@H]4[C@@]5(C)CC[C@H](OC(=O)c6cc(F)c(F)cc6C(=O)O)C(C)(C)[C@@H]5CC[C@]43C)[C@H]12 [Compound 37] | 3.94 ± 1.02 µM | 2.53 ± 0.63 µM | 2.15 ± 0.31 µM | 220 µM (≈ 141 µg/mL) | > 50 µM | 16.6 µM | – | – | – | – | – | – | –
3 | C=C(C)[C@@H]1CC[C@]2(C(=O)O)CC[C@]3(C)[C@H](CC[C@@H]4[C@@]5(C)CC[C@H](OC(=O)c6cc(OC)c(OC)cc6C(=O)O)C(C)(C)[C@@H]5CC[C@]43C)[C@@H]12 [Compound 26] | > 100 µM | 36.1 ± 14.7 µM | 26.4 ± 3.9 µM | 158 µM (≈ 105 µg/mL) | – | – | only moderate activity | > 300 µM | 83.7 µM | > 1000 µM | > 1000 µM | – | –
4 | C=C(C)[C@@H]1CC[C@]2(COC(=O)/C=C\C(=O)O)CC[C@]3(C)[C@H](CC[C@@H]4[C@@]5(C)CC[C@H](O)C(C)(C)[C@@H]5CC[C@]43C)[C@@H]12 [Compound 30] | 69.2 ± 6.8 µM | 6.8 ± 2.32 µM | 3.19 ± 0.19 µM | – | – | – | – | – | – | – | – | 15–20 | –
5 | C=C(C)[C@@H]1CC[C@]2(C(=O)O)CC[C@]3(C)[C@H](CC[C@@H]4[C@@]5(C)CC[C@H](OC(=O)c6cc(F)c(F)cc6C(=O)O)C(C)(C)[C@@H]5CC[C@]43C)[C@@H]12 [Compound 25] | 39.1 ± 5.4 µM | 5 ± 0.91 µM | 9.79 ± 3.41 µM | 240 µM (≈ 154 µg/mL) | – | – | – | > 300 µM | 18.1 µM | > 1000 µM | > 1000 µM | 4–6 | –
6 | CC1(C)CCC23CCC4(C)C5(C)CCC6C(C)(C)C(OC(=O)c7c(F)ccc(F)c7C(=O)O)CCC6(C)C5CC(O)C4(OC2=O)C3C1 (centres unmarked) [Compound 52] | 10.6 ± 2.9 µM | 27.1 ± 4.2 µM | 8.7 ± 0.59 µM | 320 µM (≈ 210 µg/mL) | – | – | – | – | – | – | – | – | –
7 | C=C(C)[C@@H]1CC[C@]2(C(=O)O)CC[C@]3(C)[C@H](CC[C@@H]4[C@@]5(C)CC[C@H](OC(=O)c6sccc6C(=O)O)C(C)(C)[C@@H]5CC[C@]43C)[C@@H]12 [Compound 18] | 1.27 ± 0.69 µM | 1.83 ± 1.45 µM | – | 255 µM (≈ 156 µg/mL) | > 50 µM | 20.1 µM | – | – | – | – | – | – | 21.8 µM
